Data published in ChEMBL document CHEMBL1938253, “Design and synthesis of novel macrocyclic 2-amino-6-arylpyrimidine Hsp90 inhibitors” (Bioorg Med Chem Lett, 2012).
pKd: −log10 of the molar value. Converted amounts (≈) assume the structure as drawn.

Key:
physchem = conditions: fasted state simulated intestinal fluid
[1] = molecular target: Heat shock protein HSP 90-alpha (Homo sapiens, UniProt P07900)
Description: Binding affinity to N-terminus biotinylated human Hsp90 alpha by surface plasmon resonance assay

in vitro [2] = conditions: human, liver microsomes
in vitro [3] = conditions: mouse, liver microsomes
[4] = Half life in athymic nu/nu mouse at 10 mg/kg, iv; assay type: ADME, organism-based; parameters: dose 10 mg/kg, route intravenous; conditions: in vivo
[5] = Tmax in athymic nu/nu mouse at 200 mg/kg, po; assay type: ADME, organism-based; parameters: dose 200 mg/kg, route oral; conditions: in vivo

SMILES | solubility (physchem) [µM] | pKd [1] | microsomal CLint at 1 h, 5 µM (in vitro [2]) [µL/min/mg] | microsomal CLint at 1 h, 5 µM (in vitro [3]) [µL/min/mg] | half-life [4] [min] | Tmax [5] [min]
CCOc1cc(C)c2cc1C(=O)NCCCOc1cccc(c1)Sc1cc-2nc(N)n1 | 186 (≈ 81.2 µg/mL) | 8.00 |  |  |  | 
COc1cc(C)c2cc1C(=O)NCCCOc1cccc(c1)Sc1cc-2nc(N)n1 | 260 (≈ 110 µg/mL) | 8.24 |  |  |  | 
Cc1cc(C)c2cc1C(=O)NCCCCCOc1cccc(c1)Sc1cc-2nc(N)n1 | 39 (≈ 16.9 µg/mL) |  |  |  |  | 
Cc1ccc2cc1-c1cc(nc(N)n1)Sc1cccc(c1)OCCCO2 |  | 6.92 |  |  |  | 
Nc1nc2cc(n1)-c1cc(c(Cl)cc1Cl)OCCCCOc1cccc(c1)S2 | < 7 | 7.96 |  |  |  | 
Cc1cc(C)c2cc1C(=O)NCCNC(=O)OCCSc1cc-2nc(N)n1 | 111 (≈ 43 µg/mL) | 9.10 | 9.3 | 21 |  | 
CSc1nc(N)nc(-c2ccc3c4c(cc(Cl)cc24)COC3)n1 | 29 (≈ 10 µg/mL) | 8.47 | 43 | 60 | 15 | 30
Cc1cc(C)c2cc1C(=O)NCCNC(=O)CCCSc1cc-2nc(N)n1 | 106 (≈ 40.9 µg/mL) | 9.21 | 5.4 | 3.6 |  | 
Cc1cc(C)c2cc1C(=O)NCCCCOc1cccc(c1)Sc1cc-2nc(N)n1 | 69 (≈ 29 µg/mL) |  |  |  |  | 
Cc1cc(C)c2cc1C(=O)NCCCCCNC(=O)CCSc1cc-2nc(N)n1 | 169 (≈ 69.9 µg/mL) |  | 1.7 | 1.8 |  | 
Cc1cc(C)c2cc1C(=O)NCCCCNC(=O)CCSc1cc-2nc(N)n1 | 553 (≈ 221 µg/mL) |  | 5.1 | 3.5 |  | 
Cc1cc(C)c2cc1C(=O)NCCOC(=O)NCCSc1cc-2nc(N)n1 | 911 (≈ 353 µg/mL) | 9.15 | 3.5 | 7.3 |  | 
Cc1cc(C)c2cc1C(=O)NCCCC(=O)NCCSc1cc-2nc(N)n1 | 117 (≈ 45.1 µg/mL) | 9.19 | 1 | 15 |  | 
